Measurements taken from patent US10207988B2, “Methods and compositions for treatment of cancer and autoimmune disease” (THE JACKSON LABORATORY, priority 2011, dated 2019).

Legend:
[1] = test system: AID-expressing (AID+) primary human CLL cells; assay: survival of primary human CLL cells cultured with DIDS (manual cytometry); assay type: cell-based
Protocol: AID-expressing (AID+) or AID-negative (AID−) primary human CLL cells were cultured as described in Example 4. […] […] The cell survival was scored by manual cytometry for viable cells after 2, 4, or 8 days of exposure.
(§1) Eight AID+ and eight AID− CLL samples were cultured in basic RPMI-1640 medium plus 30 micromolar DIDS, and survival was scored by manual cytometry for viable cells after 2, 4, 6, or 8 days. […] A total of 117 lymphoma or leukemia patients were studies, of which 106 were CLL patients. In 47% AID expression was determined by RT-PCR.

[2] = test system: primary mouse B-cells from AID knockout mice (AID−/−); assay: viable cell counts (Trypan blue) of primary B-cells cultured with DIDS; assay type: cell-based; conditions: 0-150 μM DIDS
Protocol: (§2) Primary mouse B-cells were isolated from spleens of adult C57BL/6J mice (AID+/+) and from AID knockout mice (AID−/−) (see Example 1 and 2). 1×10^^6 primary B-cells were seeded into tissue culture plates, stimulated with 1 μg/ml anti-CD40 antibodies (anti-CD40; BD Pharmingen; Cat. No. 553721) and 25 ng/ml IL-4 or with anti-CD40 alone on day 0 and day 2. 0, 50 μM, 100 μM or 150 μM of DIDS was added at time 0 and 2 days after culture initiation, when culture volumes were adjusted to accommodate cell growth. The cells were cultured over 6 days. The number of viable cells were counted after staining with Trypan blue using a hemacytometer on days 1, 2, 3, 4 and 6. In FIG. 7 the number of viable primary B-cells from C57BL/6J mice (AID+/+) and AID-knockout mice (AID−/−) after treatment with DIDS is shown.

[3] = test system: primary mouse B-cells from C57BL/6J mice (AID+/+); assay: as above; assay type: cell-based
Protocol: as §2

[4] = test system: AID-negative (AID−) primary human CLL cells; assay: survival of primary human CLL cells cultured with DIDS (manual cytometry); assay type: cell-based; conditions: 30 micromolar DIDS, 2, 4 or 8 days, versus untreated
Protocol: AID-expressing (AID+) or AID-negative (AID−) primary human CLL cells were cultured as described in Example 4. Cells were cultured in basic RPMI-1640 medium without supplementation (untreated; triangle in FIG. 17) or with 30 micromolar DIDS. Open circles represent the data for AID-negative cells treated with 30 micromolar DIDS and filled boxes represent the data for AID-positive cells treated with 30 micromolar DIDS. The cell survival was scored by manual cytometry for viable cells after 2, 4, or 8 days of exposure.
as §1

Rad51 = biological target: T1, Rad51 (Homo sapiens, UniProt Q06609); conditions: cited from earlier work
T1 sequence (Q06609 1-339): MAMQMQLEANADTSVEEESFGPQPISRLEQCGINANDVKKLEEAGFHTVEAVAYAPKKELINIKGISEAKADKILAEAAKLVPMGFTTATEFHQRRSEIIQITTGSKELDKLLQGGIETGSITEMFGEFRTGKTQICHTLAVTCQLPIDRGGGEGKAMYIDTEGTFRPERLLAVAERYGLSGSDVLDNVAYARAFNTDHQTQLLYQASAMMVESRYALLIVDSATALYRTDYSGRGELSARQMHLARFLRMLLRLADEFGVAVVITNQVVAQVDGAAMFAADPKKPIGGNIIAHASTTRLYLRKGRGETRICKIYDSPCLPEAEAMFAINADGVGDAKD

[5] = test system: activated caspase 3 (AC3) in AID+ and AID− primary human CLL cells; assay: activated caspase 3 (AC3) staining in primary human CLL cells treated with DIDS; assay type: cell-based; conditions: 30 μM DIDS, 3 days in culture
Source text: Primary human CLL patient derived cells were obtained from peripheral bleeds collected at the time of routine clinical monitoring. Primary peripheral blood samples were collected via routine venipuncture into BD Vacutainer CPT Cell Separation Tubes. Samples were centrifuged to separate red blood cells (RBC) and then inverted to resuspend the mononuclear cells in their own plasma. Samples were stored overnight at the site of collection at room temperature then shipped via courier to the site of analysis. Each sample was tested for AID expression status by reverse transcription PCR (RT-PCR) to detect presence of the human AID mRNA (see Example 11). Samples were then divided into AID+ (those showing detectable levels of AID mRNA) and AID− (those showing no detectable AID mRNA above background) groups. Multiple independent cultures from different AID+ and AID− samples were initiated in standard RPMI-1640 medium containing 10% FBS plus either 0 or 30 μM DIDS. After 3 days in culture, cells from were fixed with paraformaldehyde, mounted on microscope coverslips, permeabilized by washing with weak detergent, and processed for immunofluorescent detection of the apoptosis marker activated caspase 3 (AC3) (primary antibody: cat. No. ab13847, Abcam; 1:100 dilution). Nuclear DNA was counterstained with 4′,6-diamidino-2-phenylindole (DAPI). […]

[6] = test system: RAD51 foci in primary mouse B-cells; assay: RAD51 focus formation after ionizing radiation (immunofluorescence); assay type: cell-based
Protocol: Primary mouse B-cells were isolated from spleen of wild type C57BL/6J mice by magnetic bead based sorting (Miltenyi) to purify B220+ IgM+ B-cells. B-cells were then […], exposed to 0 or 2.5 Gy ionizing radiation in a Cs137 irradiator, and then stained by immunofluorescence for foci of the homologous recombination factor RAD51. The fraction of cells in each culture showing formation of RAD51 foci within the nucleus is reported. Irradiated cells not cultured with DIDS (0 μM) show efficient focus formation. […] Error bars show the standard error of the mean (S.E.M) from three independent experiments.

[7] = test system: mouse B-lymphoid leukemia cell line CH12-F3; assay: total cell counts of CH12-F3 cells cultured with DIDS; assay type: cell-based
Protocol: The mouse B-lymphoid leukemia cell line CH12-F3 was cultured in RPMI-1640 medium supplemented with 2-10 mM L-glutamine (Gibco), 10% (vol/vol) heat-inactivated fetal bovine serum (Omega Scientific) and 5% (vol/vol) NCTC 109 media (Gibco) (complete RPMI; non-activated) or complete RPMI-1640 medium containing 1 μg/ml anti-CD40 antibody, 25 ng/ml IL-4 and 1 ng/ml transforming growth factor beta 1 (TGF-beta1) (activated). Cultures were supplemented with 0, 50, 100, or 150 micromolar DIDS, and total cell counts were determined by manual cytometry after 0, 1, 2, 3, 4, or 6 days in culture.

O=S(=O)([O-])c1cc(N=C=S)ccc1/C=C/c1ccc(N=C=S)cc1S(=O)(=O)[O-].[Na+].[Na+] [DIDS, 4,4′diisothiocyanostilbene-2,2′-disulfonic acid]
cell viability ([1]; 10 μM DIDS): significant effects on cell viability
cell survival (viable cells) ([1]; 30 micromolar DIDS, 2, 4 or 8 days): reduced cell viability
cell viability, AID-positive versus AID-negative ([1]; 30 micromolar DIDS, eight AID+ and eight AID− CLL samples, 2, 4, 6 or 8 days): more strongly reduces cell viability in AID-positive than in AID-negative primary human CLL cells
number of viable cells [2]: no significant change in cell viability
number of viable cells ([3]; 100 μM DIDS, stimulated with anti-CD40 + IL-4): decrease of B-cell viability
number of viable cells ([3]; 150 μM DIDS, stimulated with anti-CD40 + IL-4, days 1-6): greatly reduces the cell viability from day 3 on
number of viable cells ([3]; not stimulated with anti-CD40+IL-4): does not influence the cell viability
cell survival (viable cells) [4]: indistinguishable
effect on Rad51 complexes and heteroduplex formation (Rad51): disrupts Rad51 complexes and inhibits heteroduplex formation
fraction of cells showing positive staining for AC3 [5]: higher fraction of AC3-positive cells
fraction of cells with RAD51 foci ([6]; 150 μM DIDS, 2.5 Gy ionizing radiation): completely inhibits radiation-induced RAD51 focus formation
fraction of cells with RAD51 foci ([6]; 150 µM DIDS, irradiated cells (legend of FIG. 22)): completely inhibits radiation-induced RAD51 focus formation
total cell number ([7]; activated cells (anti-CD40, IL-4, TGF-beta1), 150 micromolar DIDS): strong decrease of total cell number
total cell number ([7]; non-activated cells, 0-150 micromolar DIDS): no difference in cell viability or cell proliferation
